Reference: patent US11427615B2, “Peptide compound and application thereof, and composition containing peptide compound” (XDCEXPLORER (SHANGHAI) CO., LTD., priority 2017, dated 2022)
pEC50: −log10 of the molar value. Starred links: 1 amine or outer side, 2 acyl side, 3 side chain; linkers in the order of their positions; H or OH if unused. Non-standard residues stand in square brackets, D forms with d. Residues, ends and D or L forms follow the SMILES beside them. *: point of attachment. X13 = CCCCCCCCCCCCCCCCSC1CC(=O)N(CCOCCOCCOCCOCCOCCOCCOCCOCCC(=O)*)C1=O; X8 = CCCCCCCCCCCCCCCCc1cn(CCOCCOCCOCCOCCOCCOCCOCCOCCC(=O)*)nn1; X2 = CCCCCCCCCCCC(=O)NCCOCCOCCOCCOCCOCCn1cc(CC(=O)*)nn1; cPrCO(1-aminomethyl) = O=C(C1(CN[*:1])CC1)[*:2]; Ala(4-thiazolyl) = N[C@@H](Cc1cscn1)C(=O)O; PEG8 = NCCOCCOCCOCCOCCOCCOCCOCCOCCC(=O)O; dPhe(4-I) = N[C@H](Cc1ccc(I)cc1)C(=O)O; X9 = CC(C)CC(C(=O)[*:2])C(=S)NCN[*:1]; Arg(Me) = CNC(=N)NCCC[C@H](N)C(=O)O; Palmitoyl = CCCCCCCCCCCCCCCC(=O)*; Ala(cPr) = N[C@@H](CC1CC1)C(=O)O; Hyp = O=C(O)[C@@H]1C[C@@H](O)CN1; αMeL = CC(C)C[C@](C)(N)C(=O)O; Cba = N[C@@H](CC1CCC1)C(=O)O; Nonanoyl = CCCCCCCCC(=O)*; Aze = O=C(O)[C@@H]1CCN1; Thp = NC1(C(=O)O)CCOCC1; Deg = CCC(N)(CC)C(=O)O; AEEA = NCCOCCOCC(=O)O; azaGly = NNC(=O)O; βAla = NCCC(=O)O

Molecular target: T1, human kiss1 receptor (GPR54) (Homo sapiens, UniProt Q969F8)
T1 construct: host or cells: NFAT-bla CHO-K1 cells (Chinese hamster ovary), purchased recombinant cell line
T1 sequence (Q969F8 whole entry): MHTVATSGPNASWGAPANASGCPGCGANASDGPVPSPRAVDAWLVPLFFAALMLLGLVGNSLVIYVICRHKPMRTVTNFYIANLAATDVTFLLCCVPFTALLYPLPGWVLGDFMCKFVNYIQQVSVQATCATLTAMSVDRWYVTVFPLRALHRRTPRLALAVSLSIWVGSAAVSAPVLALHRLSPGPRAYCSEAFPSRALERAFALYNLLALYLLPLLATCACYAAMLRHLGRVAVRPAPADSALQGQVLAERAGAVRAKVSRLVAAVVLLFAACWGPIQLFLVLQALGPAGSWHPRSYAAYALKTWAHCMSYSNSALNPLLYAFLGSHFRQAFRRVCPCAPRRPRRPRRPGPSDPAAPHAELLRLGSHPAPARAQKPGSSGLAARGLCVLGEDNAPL
Test: Kiss1 receptor (GPR54) binding activity of agonists, FRET detection in NFAT-bla CHO-K1 cells
Type: cell-based
Details: GPR54; measured according to the method of effect Embodiment 1; preliminary data; read-out: Preliminary measurement data (GPR54) EC50
Procedure: Effect Embodiment 1 Determination of Kiss1 Receptor (GPR54) Binding Activity of Kiss1 Receptor (GPR54) Agonist
The binding activity test of each compound from the above the embodiments with kiss1 receptor (GPR54) was performed by fluorescence energy resonance transfer (FRET) detection technology to detect EC50 values of polypeptides and peptide analogs. The cells used in this experiment were NFAT-bla CHO-K1 cells (k1720, invitrogen, thermosher) that express human kiss1 receptor (GPR54). The specific operations were as follows:
Day 1: Seeding Cells in Plate
1. Microscope (CKX41, OLYMPUS), object lens×4 times, ocular lens×10 times. The cells were ensured in a good condition.
2. Digesting the cells, adding 3 ml of 0.05% pancreatin into a culture dish; cells were placed in a 37° C., 5% CO2 incubator for 2 minutes (Thermo Fisher). After the cells became round under the microscope, 7 ml of culture medium was added. The formula of culture medium was as follows: DMEM 90%, dialzedfbS10, NEAA 0.1 mM, HEPES 25 mM, Penicillin 100 U/ml, Streptomycin 100 μm/ml, pH7.3. After blowing and stirring, it was transferred to 15 mL centrifuge tube (430790, Corning). Centrifuge at 1000 rpm for 5 min (5810R, Eppendorf) and the supernatant was discard.
3. Adding 7 mL of culture medium (DMEM+0.1% BSA), it was pipetting into single cell suspension, after counting with Bio-RAD counter, the cell density was adjusted to 312,500 cells/ml.
4. Cells were inoculated into 384 well plates at 32 μL per well, and the cell number was controlled at 10000 cells/well. 32 μl of culture medium was added into the blank control.
Day 2: Dosing and Data Analysis
1) The compound to be tested was prepared into 50 mM working solution with DMSO.
2) 40 μl of the working solution of the compound to be tested was added into column 2 of row A-H of U-shaped 96-well plate (3797, comings), and 60 μl of DMSO was added into column 3-11. 20 μl of compound solution was sucked from the second column to the third column with a multichannel pipette blowing and stirring evenly; 20 μl of compound solution was absorbed from the third column with a multichannel pipette, then added into the fourth column, blowed and stirred to mix well; the compound was serially diluted 4-fold to a total of 10 concentrations. Column 1 and column 12 of 96-well plates were supplemented with 40 μl DMSO.
2. Intermediate Plate Configuration
1) AU-shaped 96-well plate was used, 199 μL of culture medium (DMEM+0.1% BSA) was added to each well, 1 μL of diluted compound (or DMSO) was sucked from 1000× compound plate and added into the 96-well plate at the corresponding position, blowed and stirred to mix well.
2) Homemade positive compounds and compounds to be tested were added. The cell culture plate was took out from the incubator and cells state was observed under microscope. Diluted compound in the intermediate plate or DMSO was added into the cell, 8 μl per well.
3) Cells were cultured in 37° C. and 5% CO2 for 4 hours.
3. The Substrate was Added to Detect the Binding of the Drug to the Receptor
1) 1 μmol/L CCF-4AM solution and buffer solution B, C, D were equilibrated to room temperature. LiveBLAZER™-FRET B/G Loading Kit (K1095, thermo Fisher) containing CCF-4AM and solution B, solution C, solution D were also available from Invitrogen (K1157, thermo Fisher).
2) 6× loading solution was prepared: 6 μl of CCF-4AM dissolved solution A, 60 μl of solution b, 904 μl of solution c, and 30 μl of solution D were pipetted into EP tube, blowed and stirred to mix well.
3) 8 μl of the above-mentioned liquid was sucked with a multichannel pipette, added into a 96-well plate, and incubated for 2 hours at room temperature.
4) The PerkinElmer detector was used to detect the luminous signals of each hole. FI mode, λex=409 nm, λem1=460 nm, λem2=530 nm.
4. Data Processing Using Graphpad Prism 5 (GraphPad Software. Inc)
Effective rate %=(Signal−Min)/(Max−Min)×100%.

Structure (SMILES)	pEC50
CCCCCCCCCCCCCCCC(=O)NCCOCCOCCOCCOCCOCCOCCOCCOCCC(=O)NCC(=O)NCC(=O)N[C@H](Cc1ccc(O)cc1)C(=O)N1C[C@H](O)C[C@H]1C(=O)N[C@@H](CC(N)=O)C(=O)N[C@H](C(=O)N[C@@H](Cc1ccccc1)C(=O)N1CC[C@H]1C(=O)N[C@@H](CC(C)C)C(=O)N[C@@H](CCCNC(=N)NC)C(=O)N[C@@H](Cc1c[nH]c2ccccc12)C(N)=O)[C@@H](C)O [YA-287, Palm-PEG 8-Gly-Gly-D-Tyr-Hyp-Asn-Thr-Phe-Aze-Leu-Arg(Me)-Trp-NH2] ({Palmitoyl-PEG8}-GG[dY][Hyp]NTF[Aze]L[Arg(Me)]W-NH2)	10.42
CNC(=N)NCCC[C@H](NC(=O)[C@H](CC(C)C)NC(=O)NNC(=O)[C@H](Cc1ccccc1)NC(=O)[C@@H](NC(=O)[C@H](CC(N)=O)NC(=O)[C@@H]1C[C@@H](O)CN1C(=O)[C@@H](Cc1ccc(O)cc1)NC(=O)CCNC(=O)CCNC(=O)[C@H](CCC(N)=O)NC(=O)[C@@H]1CCCN1C(=O)[C@H](CCCNC(=N)N)NC(=O)[C@H](CCCNC(=N)N)NC(=O)[C@H](CCCNC(=N)N)NC(=O)[C@H](CCC(N)=O)NC(=O)[C@H](CCCNC(=N)N)NC(=O)[C@H](CCCNC(=N)N)NC(=O)[C@H](CCCCN)NC(=O)[C@H](CCCCN)NC(=O)[C@H](CCCNC(=N)N)NC(=O)CNC(C)=O)[C@@H](C)O)C(=O)N[C@@H](Cc1c[nH]c2ccccc12)C(N)=O [YA-291, Ac-Gly-Arg-Lys-Lys-Arg-Arg-Gln-Arg-Arg-Pro-Gln-(Beta-Ala)-(Beta-Ala)-(D-Tyr)-Hyp-Asn-Thr-Phe-Azag-Leu-Arg(Me)-Trp-NH2] (Ac-GRKKRRQRRRPQ[βAla][βAla][dY][Hyp]NTF[azaGly]L[Arg(Me)]W-NH2)	9.51
CCCCCCCCC(=O)NCCOCCOCC(=O)N[C@H](Cc1ccc(O)cc1)C(=O)N1C[C@H](O)C[C@H]1C(=O)N[C@@H](CC(N)=O)C(=O)N[C@H](C(=O)N[C@@H](Cc1ccccc1)C(=O)NNC(=O)N[C@@H](CC(C)C)C(=O)N[C@@H](CCCNC(=N)NC)C(=O)N[C@@H](Cc1c[nH]c2ccccc12)C(N)=O)[C@@H](C)O [YA-295, Nonanoyl-OEG-D-Tyr-Hyp-Asn-Thr-Phe-azaGly-Leu-Arg(Me)-Trp-NH2] ({Nonanoyl-AEEA}-[dY][Hyp]NTF[azaGly]L[Arg(Me)]W-NH2)	10.70
CCCCCCCCCCCC(=O)NCCOCCOCCOCCOCCOCCn1cc(CC(=O)N[C@H](Cc2ccc(O)cc2)C(=O)N2C[C@H](O)C[C@H]2C(=O)N[C@@H](CC(N)=O)C(=O)N[C@H](C(=O)N[C@@H](Cc2ccccc2)C(=O)NCNC(=S)C(CC(C)C)C(=O)N[C@@H](CCCNC(=N)NC)C(=O)N[C@@H](Cc2c[nH]c3ccccc23)C(N)=O)[C@@H](C)O)nn1 (stereo partly drawn) [YA-348, M10 [Dodecanoyl-PEG5-1,2,3- Triazole cyclic-Acetyl, D-Tyr45, Hyp46, des47, Thr49, Gψ(NHCS)51, Arg(Me)53, Trp54]] (X2-[dY][Hyp]NTF[X9][Arg(Me)]W-NH2)	10.72
CNC(=N)NCCC[C@H](NC(=O)[C@H](CC(C)C)NC(=O)C1(NC(=O)[C@H](Cc2ccccc2)NC(=O)[C@@H](NC(=O)[C@H](CC(N)=O)NC(=O)[C@@H]2C[C@@H](O)CN2C(=O)[C@@H](Cc2ccc(O)cc2)NC(C)=O)[C@@H](C)O)CCOCC1)C(=O)N[C@@H](Cc1c[nH]c2ccccc12)C(N)=O [YA-354, Ac-(D-Tyr)-Hyp-Asn-Thr-Phe-morpholino cyclic amino acid-Leu-Arg(Me)-Trp-NH2] (Ac-[dY][Hyp]NTF[Thp]L[Arg(Me)]W-NH2)	9.59
CNC(=N)NCCC[C@H](NC(=O)[C@H](CC(C)C)NC(=O)[C@H](Cc1cscn1)NC(=O)[C@H](Cc1ccccc1)NC(=O)[C@@H](NC(=O)[C@H](CC(N)=O)NC(=O)[C@@H]1C[C@@H](O)CN1C(=O)[C@@H](Cc1ccc(O)cc1)NC(C)=O)[C@@H](C)O)C(=O)N[C@@H](Cc1c[nH]c2ccccc12)C(N)=O [YA-357, Ac-(D-Tyr)-Hyp-Asn-Thr-Phe-Beta-(thiazoly-4-yl)-L-Ala-Leu-Arg(Me)-Trp-NH2] (Ac-[dY][Hyp]NTF[Ala(4-thiazolyl)]L[Arg(Me)]W-NH2)	9.52
CNC(=N)NCCC[C@H](NC(=O)[C@H](CC(C)C)NC(=O)NNC(=O)[C@H](Cc1ccccc1)NC(=O)[C@@H](NC(=O)[C@H](CC(N)=O)NC(=O)[C@@H]1C[C@@H](O)CN1C(=O)[C@@H](Cc1ccc(I)cc1)NC(C)=O)[C@@H](C)O)C(=O)N[C@@H](Cc1c[nH]c2ccccc12)C(N)=O [YA-358, Ac-(D-Phe(4-I))-Hyp-Asn-Thr-Phe-azaGly-Leu-Arg(Me)-Trp-NH2] (Ac-[dPhe(4-I)][Hyp]NTF[azaGly]L[Arg(Me)]W-NH2)	10.49
CCCCCCCCCCCCCCCC(=O)NCCOCCOCCOCCOCCOCCOCCOCCOCCC(=O)NCC(=O)NCC(=O)N[C@H](Cc1ccc(I)cc1)C(=O)N1C[C@H](O)C[C@H]1C(=O)N[C@@H](CC(N)=O)C(=O)N[C@H](C(=O)N[C@@H](Cc1ccccc1)C(=O)NNC(=O)N[C@@H](CC(C)C)C(=O)N[C@@H](CCCNC(=N)NC)C(=O)N[C@@H](Cc1c[nH]c2ccccc12)C(N)=O)[C@@H](C)O [YA-366, Palm-PEG8-Gly-Gly-(D-Phe(4-I))-Hyp-Asn-Thr-Phe-AzaGly-Leu-Arg(Me)-Trp-NH2] ({Palmitoyl-PEG8}-GG[dPhe(4-I)][Hyp]NTF[azaGly]L[Arg(Me)]W-NH2)	10.32
CCCCCCCCCCCCCCCCc1cn(CCOCCOCCOCCOCCOCCOCCOCCOCCC(=O)NCC(=O)NCC(=O)N[C@H](Cc2ccc(O)cc2)C(=O)N2C[C@H](O)C[C@H]2C(=O)N[C@@H](CC(N)=O)C(=O)N[C@H](C(=O)N[C@@H](Cc2ccccc2)C(=O)NNC(=O)N[C@@H](CC(C)C)C(=O)N[C@@H](CCCNC(=N)NC)C(=O)N[C@@H](Cc2c[nH]c3ccccc23)C(N)=O)[C@@H](C)O)nn1 [YA-367, M10 [Hexadecyl-1,2,3-Triazole-PEG8, G43, G44, D-Tyr45, Hyp46, des47, T49, AzaGly51, R(Me)53, W54]] (X8-GG[dY][Hyp]NTF[azaGly]L[Arg(Me)]W-NH2)	9.99
CCCCCCCCCCCCCCCCSC1CC(=O)N(CCOCCOCCOCCOCCOCCOCCOCCOCCC(=O)NCC(=O)NCC(=O)N[C@H](Cc2ccc(O)cc2)C(=O)N2C[C@H](O)C[C@H]2C(=O)N[C@@H](CC(N)=O)C(=O)N[C@H](C(=O)N[C@@H](Cc2ccccc2)C(=O)NNC(=O)N[C@@H](CC(C)C)C(=O)N[C@@H](CCCNC(=N)NC)C(=O)N[C@@H](Cc2c[nH]c3ccccc23)C(N)=O)[C@@H](C)O)C1=O (stereo partly drawn) [YA-368, M10 [Hexadecyl-S-maleimide-PEG8, G43, G44, D-Tyr45, Hyp46, des47, T49, AzaGly51, R(Me)53, W54]] (X13-GG[dY][Hyp]NTF[azaGly]L[Arg(Me)]W-NH2)	10.29
CNC(=N)NCCC[C@H](NC(=O)[C@H](CC(C)C)NC(=O)NNC(=O)[C@H](Cc1ccccc1)NC(=O)[C@@H](NC(=O)[C@H](CC(N)=O)NC(=O)[C@](C)(CC(C)C)NC(=O)[C@@H](Cc1ccc(O)cc1)NC(C)=O)[C@@H](C)O)C(=O)N[C@@H](Cc1c[nH]c2ccccc12)C(N)=O [YA-379, Ac-(D-Tyr)-AlphaMeLeu-Asn-Thr-Phe-azaGly-Leu-Arg(Me)-Trp-NH2] (Ac-[dY][αMeL]NTF[azaGly]L[Arg(Me)]W-NH2)	10.82
CNC(=N)NCCC[C@H](NC(=O)[C@H](CC(C)C)NC(=O)NNC(=O)[C@H](Cc1ccccc1)NC(=O)[C@@H](NC(=O)[C@H](CC(N)=O)NC(=O)[C@H](CC1CCC1)NC(=O)[C@@H](Cc1ccc(O)cc1)NC(C)=O)[C@@H](C)O)C(=O)N[C@@H](Cc1c[nH]c2ccccc12)C(N)=O [YA-380, Ac-(D-Tyr)-Cba-Asn-Thr-Phe-azaGly-Leu-Arg(Me)-Trp-NH2] (Ac-[dY][Cba]NTF[azaGly]L[Arg(Me)]W-NH2)	9.72
CNC(=N)NCCC[C@H](NC(=O)[C@H](CC(C)C)NC(=O)NNC(=O)[C@H](Cc1ccccc1)NC(=O)[C@@H](NC(=O)[C@H](CC(N)=O)NC(=O)[C@H](CC1CC1)NC(=O)[C@@H](Cc1ccc(O)cc1)NC(C)=O)[C@@H](C)O)C(=O)N[C@@H](Cc1c[nH]c2ccccc12)C(N)=O [YA-383, Ac-(D-Tyr)-Cpa-Asn-Thr-Phe-azaGly-Leu-Arg(Me)-Trp-NH2] (Ac-[dY][Ala(cPr)]NTF[azaGly]L[Arg(Me)]W-NH2)	10.13

Same assay, conditions: human kiss1 receptor (GPR54), NFAT-bla CHO-K1 cells, FRET; preliminary data; method of effect Embodiment 1; read-out: Preliminary measurement data (GPR54) EC50

Structure (SMILES)	pEC50
CNC(=N)NCCC[C@H](NC(=O)[C@H](CC(C)C)NC(=O)C1(CNC(=O)[C@H](Cc2ccccc2)NC(=O)[C@@H](NC(=O)[C@H](CC(N)=O)NC(=O)[C@@H]2C[C@@H](O)CN2C(=O)[C@@H](Cc2ccc(O)cc2)NC(C)=O)[C@@H](C)O)CC1)C(=O)N[C@@H](Cc1c[nH]c2ccccc12)C(N)=O [YA-289, Ac-(D-Tyr)-Hyp-Asn-Thr-Phe-ACPA-Leu-Arg(Me)-Trp-NH2] (Ac-[dY][Hyp]NTF[cPrCO(1-aminomethyl)]L[Arg(Me)]W-NH2)	7.37
CNC(=N)NCCC[C@H](NC(=O)[C@H](CC(C)C)NC(=O)CCNC(=O)[C@H](Cc1ccccc1)NC(=O)[C@@H](NC(=O)[C@H](CC(N)=O)NC(=O)[C@@H]1C[C@@H](O)CN1C(=O)[C@@H](Cc1ccc(O)cc1)NC(C)=O)[C@@H](C)O)C(=O)N[C@@H](Cc1c[nH]c2ccccc12)C(N)=O [YA-337, Ac-(D-Tyr)-Hyp-Asn-Thr-Phe-BetaAla-Leu-Arg(Me)-Trp-NH2] (Ac-[dY][Hyp]NTF[βAla]L[Arg(Me)]W-NH2)	8.66
CCC(CC)(NC(=O)[C@H](Cc1ccccc1)NC(=O)[C@@H](NC(=O)[C@H](CC(N)=O)NC(=O)[C@@H]1C[C@@H](O)CN1C(=O)[C@@H](Cc1ccc(O)cc1)NC(C)=O)[C@@H](C)O)C(=O)N[C@@H](CC(C)C)C(=O)N[C@@H](CCCNC(=N)NC)C(=O)N[C@@H](Cc1c[nH]c2ccccc12)C(N)=O [YA-355, Ac-(D-Tyr)-Hyp-Asn-Thr-Phe-Deg-Leu-Arg(Me)-Trp-NH2] (Ac-[dY][Hyp]NTF[Deg]L[Arg(Me)]W-NH2)	8.92
CNC(=N)NCCC[C@H](NC(=O)[C@H](CC(C)C)NC(=O)[C@](C)(CC(C)C)NC(=O)[C@H](Cc1ccccc1)NC(=O)[C@@H](NC(=O)[C@H](CC(N)=O)NC(=O)[C@@H]1C[C@@H](O)CN1C(=O)[C@@H](Cc1ccc(O)cc1)NC(C)=O)[C@@H](C)O)C(=O)N[C@@H](Cc1c[nH]c2ccccc12)C(N)=O [YA-370, Ac-(D-Tyr)-Hyp-Asn-Thr-Phe-(α-Me-Leu)-Leu-Arg(Me)-Trp-NH2] (Ac-[dY][Hyp]NTF[αMeL]L[Arg(Me)]W-NH2)	8.81
